Literature values in patent publication US6583130B1, “C13-substituted estra-1,3,5,(10)-trien-3-yl sulfamates, methods of preparing same, and pharmaceutical compositions containing these compounds” (Schering AG, priority 1999, dated 2003).

Tests used:
estrogenic effect = settings: as described in the cited literature (Elger et al. 1995; WO 97/14712)
sulfatase = target: T1, sulfatase (Homo sapiens, UniProt P08842); settings: as described in the cited literature
T1 sequence (P08842 22-583): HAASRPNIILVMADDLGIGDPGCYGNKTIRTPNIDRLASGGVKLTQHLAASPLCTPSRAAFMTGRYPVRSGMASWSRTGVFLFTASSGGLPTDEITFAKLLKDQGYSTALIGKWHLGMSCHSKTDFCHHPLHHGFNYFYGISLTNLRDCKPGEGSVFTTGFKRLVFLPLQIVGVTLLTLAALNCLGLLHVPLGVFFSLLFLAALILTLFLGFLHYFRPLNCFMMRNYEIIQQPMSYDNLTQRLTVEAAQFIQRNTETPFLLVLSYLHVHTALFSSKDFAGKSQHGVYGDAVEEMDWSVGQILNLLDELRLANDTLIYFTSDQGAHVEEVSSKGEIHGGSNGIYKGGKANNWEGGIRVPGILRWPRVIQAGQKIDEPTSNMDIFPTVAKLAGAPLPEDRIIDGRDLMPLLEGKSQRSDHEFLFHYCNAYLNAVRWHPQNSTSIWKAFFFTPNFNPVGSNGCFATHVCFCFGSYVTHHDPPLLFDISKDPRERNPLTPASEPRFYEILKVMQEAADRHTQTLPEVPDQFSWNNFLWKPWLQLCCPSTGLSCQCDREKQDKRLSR

uterine growth = settings: ovariectomized rats; Purohit et al. 1998

C[C@]12CC[C@@H]3c4ccc(OS(N)(=O)=O)cc4CC[C@H]3[C@@H]1CCC2=O [estrone 3-O-sulfamate]
estrogenic effect (estrogenic effect): strong estrogenic effect | sulfatase inhibition (sulfatase): strong sulfatase inhibitor

COc1cc2c(cc1OS(N)(=O)=O)CC[C@@H]1[C@@H]2CC[C@]2(C)C(=O)CC[C@@H]12 [2-methoxyestrone 3-O-sulfamate]
estrogenic effect on uterine growth (uterine growth): does not exhibit any estrogenic effect | sulfatase inhibition (sulfatase): potent sulfatase inhibitor

CC(=O)NS(=O)(=O)Oc1ccc2c(c1)CC[C@@H]1[C@@H]2CC[C@]2(C)C(=O)CC[C@@H]12 [N-acetylestrone 3-O-sulfamate]
estrogenic effect (estrogenic effect): strong estrogenic effect | sulfatase inhibition (sulfatase): sulfatase inhibitor
